Experiments:
[1] = GSH reaction rates (inherent GSH reactivity); format: in vitro ADME; conditions: for T1/2(hour) in GSH: potassium phosphate buffer pH 7.4
Experimental: Therefore Strategy to minimize the GSH metabolism is very critical. Short T1/2 in inherent GSH reaction indicated high GSH reaction rate. Thus T1/2 in inherent GSH reaction assay was determined for the screening of candidates. Reference compounds and compounds of this invention potentially could form conjugation with GSH either through halogenated moieties substitution reaction or direct Michael addition reaction. This test was therefore performed to check GSH reactivity of listed compounds. For inherent GSH reactivity determination, compounds at 1 μM were incubated at 37° C. with and without 5 mM GSH for 0, 0.5, 1, 2, 4 and 6 h in 100 mM potassium phosphate buffer at pH 7.4. At the end of the designated time points, samples were quenched with acetonitrile containing 10 mM N-ethylmaleimide and an internal standard. Quenched samples were centrifuged, and supernatants were analyzed by LC-MS/MS for compound quantification.

KRAS G12C-BRAF complex [2] = biological target: T1, KRAS G12C-BRAF complex (Homo sapiens (Human), UniProt P01116+P62937, G12C); assay: KRAS G12C-BRAF NanoBit assay; format: cell-based; conditions: HEK293 cells, SmBit-KRAS G12C and BRAF RBD-LgBit, 3 hours incubation
Experimental: This assay is to measure the ability of tested compounds in disruption of the KRAS G12C-BRAF complex at the cellular level, we established the NanoBit cellular assay in mammalian HEK293 (ATCC) cells. HEK293 cells were grown and maintained using DMEM medium (Thermo Fisher Scientific) with 10% fetal bovine serum and 1% penicillin/streptomycin. Both KRAS G12C and BRAF RBD were cloned into the NanoBit vectors ([…] vectors system, Promega) with the orientations SmBit-KRAS G12C and BRAF RBD-LgBit, respectively, and co-transfected into HEK293 cells. Cells were then selected with 100 μg/mL Hygromycin B (10687010, Thermo Fisher) and Blasticidin (5 μg/mL) for 4 weeks to get the stable cell pool. On the day of the assay, 75 nL of compound solution was presented in a 384-well assay plate as a 16-point 3-fold dilution starting from a final concentration of 30 μM in DMSO. Then cells were seeded at 10,000 cells/25 μL/well in a 384-well plate. After 3 hours of incubation, 6 μL of volume of Nano-Glo® Live Cell Substrate (Promega) was added into each well. Monitor luminescence using ultra384 model in Envision at 20 minutes. Compounds that facilitate disruption of the KRAS G12C-BRAF RBD complex were identified as those eliciting a decrease of luminescence relative to DMSO control wells.

[3] = tested on: KRAS G12C in NCI-H358 cells; assay: pERK inhibition assay, NCI-H358; format: cell-based, human; conditions: Homo sapiens, 4 hours incubation
In short: (§1)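 NCI-H358, AGS and SW620 cells in RPMI-1640/10% FBS were plated overnight, then exposed to compound (0.5% DMSO final) for 4 h. After fixation and permeabilization, phospho-ERK was quantified by in-cell ELISA (HRP secondary, TMB, OD450); IC50 from a 4-parameter sigmoidal fit.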

KRAS G12D in AGS cells = assay: pERK inhibition assay, AGS; format: cell-based, human; conditions: Homo sapiens, 4 hours incubation
In short: as §1

KRAS G12V in SW620 = assay: pERK inhibition assay, SW620; format: cell-based, human; conditions: Homo sapiens, SW-620, SW620 cells, 4 hours incubation
In short: as §1

NCI-H358 cells = assay: Cell viability assay, NCI-H358; format: cell-based, human; conditions: Homo sapiens, NCI-H358, 72 hours, Cell Counting Kit-8, read-out: G12C IC50
In short: (§2)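 Cells were plated at 5,000 (NCI-H358) or 2,000 (AGS, SW620) per well and incubated overnight. They were then treated with compound in 0.5% DMSO for 72 h. Viability was read with CCK-8 as OD450 minus OD650 after 2 h, and IC50 came from a 4-parameter sigmoidal fit.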

AGS cells = assay: Cell viability assay, AGS; format: cell-based, human; conditions: Homo sapiens, 72 hours, Cell Counting Kit-8, read-out: G12D IC50
In short: as §2

SW620 cells = assay: Cell viability assay, SW620; format: cell-based, human; conditions: Homo sapiens, SW-620, SW620, 72 hours, Cell Counting Kit-8, read-out: G12V IC50
In short: as §2

[4] = Human hepatocytes stability assay; format: in vitro ADME; conditions: for CL_hep (Human): 1 μM compound, human hepatocytes 1×10^6 cells/mL; for Clearance Category: human hepatocytes
Experimental: The hepatocyte stability assay measures the rate of disappearance of a compound from incubations with cryopreserved suspension hepatocytes from human. Positive controls, including Midazolam, Raloxifene and Dextromethorphan, are included in every experiment. Incubations consist of 1 μM tested compound and suspension of human hepatocytes (1×10^6 cells/mL) in supplemented Williams' E Medium with […] and 0.5% Penicillin-streptomycin. The hepatocyte suspension was incubated with intermittent shaking 900 rpm at 37° C., in a 5% CO2 incubator. The reaction was stopped by adding methanol containing internal standard (2 μM Tolbutamide) at 2, 10, 20, 40, 60 and 120 minutes after compound addition, depletion of the parent compound was monitored by LC-MS/MS analysis.

KRAS G12C-BRAF complex [5] = biological target: T1, KRAS G12C-BRAF complex; assay: KRAS-BRAF with CYPA (50 nM) interaction assay (TR-FRET), G12C; format: binding; conditions: GMPPNP loaded 6His-KRAS, GST-BRAF RBD
Experimental: (§3) In this example, TR-FRET was also used to measure the compound or compound-CYPA dependent disruption of the KRAS G12C-BRAF complex. This protocol was also used to measure disruption of KRAS G12D or KRAS G12V binding to BRAF by a compound of the invention, respectively. In assay buffer containing 25 mM HEPES PH=7.4 (4-(2-hydroxyethyl)-1-piperazineethanesulfonic acid, Thermo, 15630080), 0.002% Tween20, 0.1% BSA, 100 mM NaCl, 5 mM MgCl2, 10 μM GMPPNP (Guanosine 5'-[β,γ-imido]triphosphate trisodium salt hydrate, Sigma, G0635), tagless CYPA, GMPPNP loaded 6His-KRAS proteins, and GST-BRAF^RBD were mixed in a well of a 384-well assay plate at final concentrations of 50 nM, 6.25 nM and 1 nM, respectively. Compound was present in plate wells as a 16-point 3-fold dilution series starting at a final concentration of 10 μM and incubated for 3 hours. A mixture of MAb Anti-6His-XL665 (Cisbio, 61HISXLB) and Mab anti-GST-TB cryptate (Cisbio, 61GSTTLB) was then added at a final concentration of 6.67 nM and 0.21 nM, respectively, and the plate was incubated for an additional 1.5 hours. TR-FRET signal was read on a […] microplate reader (Ex320 nm, Em 665/615 nm). Compounds that facilitate disruption of the KRAS-BRAF complex were identified as those eliciting a decrease in the TR-FRET ratio relative to DMSO control wells.

[6] = biological target: KRAS G12D binding to BRAF (Homo sapiens (Human), UniProt P01116+P62937, G12D); assay: KRAS-BRAF with CYPA (50 nM) interaction assay (TR-FRET), G12D; conditions: GMPPNP loaded 6His-KRAS, GST-BRAF RBD
Experimental: as §3

[7] = biological target: KRAS G12V binding to BRAF (Homo sapiens (Human), UniProt P01116+P62937, G12V); assay: KRAS-BRAF with CYPA (50 nM) interaction assay (TR-FRET), G12V; conditions: GMPPNP loaded 6His-KRAS, GST-BRAF RBD
Experimental: as §3

[8] = 1 μM compound, 5 mM GSH, 37° C., pH 7.4, 6 hr
[9] = 1 μM compound, 5 mM GSH, 37° C.

T1 sequence (P01116-2 other isoform, or with tags, fused parts or gaps G12C): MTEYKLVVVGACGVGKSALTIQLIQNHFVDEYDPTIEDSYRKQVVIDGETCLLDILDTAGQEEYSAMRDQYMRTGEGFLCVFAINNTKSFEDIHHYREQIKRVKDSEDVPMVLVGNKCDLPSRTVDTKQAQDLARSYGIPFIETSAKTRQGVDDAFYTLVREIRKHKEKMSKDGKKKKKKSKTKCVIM
T1 sequence (P62937 whole entry): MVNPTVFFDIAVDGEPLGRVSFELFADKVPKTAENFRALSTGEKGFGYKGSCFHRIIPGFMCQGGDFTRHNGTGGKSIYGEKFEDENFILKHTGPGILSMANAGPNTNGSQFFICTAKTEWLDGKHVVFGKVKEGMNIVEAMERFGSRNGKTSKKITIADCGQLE
Chain of KRAS G12V binding to BRAF (P01116-2 other isoform, or with tags, fused parts or gaps G12V): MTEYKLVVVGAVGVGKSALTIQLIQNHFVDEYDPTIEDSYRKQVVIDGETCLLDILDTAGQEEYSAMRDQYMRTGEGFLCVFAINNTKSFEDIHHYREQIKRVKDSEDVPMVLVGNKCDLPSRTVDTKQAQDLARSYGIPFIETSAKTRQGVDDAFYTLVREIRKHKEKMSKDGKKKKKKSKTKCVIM
Chain of KRAS G12V binding to BRAF (P62937 whole entry): as the sequence (P62937 whole entry) above
Chain of KRAS G12D binding to BRAF (P01116-2 other isoform, or with tags, fused parts or gaps G12D): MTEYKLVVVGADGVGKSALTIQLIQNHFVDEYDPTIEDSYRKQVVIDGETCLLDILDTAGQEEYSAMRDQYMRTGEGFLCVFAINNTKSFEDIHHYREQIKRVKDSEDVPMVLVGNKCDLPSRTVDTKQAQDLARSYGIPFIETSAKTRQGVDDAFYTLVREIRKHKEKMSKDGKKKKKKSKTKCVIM
Chain of KRAS G12D binding to BRAF (P62937 whole entry): as the sequence (P62937 whole entry) above

SMILES | Remaining at 6 hr in GSH (%) [1, 8] | T1/2(hour) in GSH [1, 9] | IC50 (KRAS G12C-BRAF complex [2]) | IC50 [3] | IC50 (KRAS G12D in AGS cells) | IC50 (KRAS G12V in SW620) | IC50 (NCI-H358 cells) | IC50 (AGS cells) | IC50 (SW620 cells) | CL_hep (Human) [4] | Clearance Category [4] | IC50 (KRAS G12C-BRAF complex [5]) | IC50 [6] | IC50 [7] | Remaining at 6 hr in GSH (%) ([1]; 6 h, 1 μM, pH 7.4)
CO[C@@H](C)c1ncc(N2CCN(C)CC2)cc1-c1c2c3cc(ccc3n1CC(F)(F)F)-c1csc(n1)C[C@H](NC(=O)[C@H](C(C)C)N1CCCC3(CCN(C(=O)[C@H](F)Cl)C3)C1=O)C(=O)N1CCC[C@H](N1)C(=O)OCC(C)(C)C2 (stereo partly drawn) [Example 19, (2S)-2-[2-[(2R)-2-chloro-2-fluoro-acetyl]-6-oxo-2,7-diazaspiro[4.5]decan-7-yl]-N-[(7S,13S)-(20M)-20-[2-[(1S)-1-methoxyethyl]-5-(4-methylpiperazin-1-yl)-3-pyridyl]-17,17-dimethyl-8,14-dioxo-21-(2,2,2-trifluoroethyl)-15-oxa-4-thia-9,21,27,28-tetrazapentacyclo[17.5.2.12,5.19,13.022,26]octacosa-1(25),2,5(28),19,22(26),23-hexaen-7-yl]-3-methyl-butanamide] | 85% | stable (If % depletion after 6 hour incubation is less than 20%, compounds were reported as stable) | 21 nM | 3 nM | 28 nM | 8 nM | 0.9 nM | 18 nM | 15 nM | 10.1 mL/min/kg | medium (16.24<CL_hep (mL/min/kg)>6.96 is medium clearance) |  |  |  | 
CCn1c(-c2cccnc2[C@H](C)OC)c2c3cc(ccc31)-c1cc(O)cc(c1)C[C@H](NC(=O)[C@H](C(C)C)N(C)C(=O)[C@H]1CCN(C(=O)C(F)Cl)C1)C(=O)N1CCC[C@H](N1)C(=O)OCC(C)(C)C2 (stereo partly drawn) [Example 2, (3S)-1-[(2R)-2-chloro-2-fluoro-acetyl]-N-[(1S)-1-[[(8S,14S)-22-ethyl-4-hydroxy-(21M)-21-[2-[(1S)-1-methoxyethyl]-3-pyridyl]-18,18-dimethyl-9,15-dioxo-16-oxa-10,22,28-triazapentacyclo[18.5.2.12,6.110,14.023,27]nonacosa-1(26),2,4,6(29),20,23(27),24-heptaen-8-yl]carbamoyl]-2-methyl-propyl]-N-methyl-pyrrolidine-3-carboxamide] |  |  | 68 nM | 3 nM | 56 nM | 37 nM | 2 nM | 83 nM | 156 nM |  |  | 6 nM | 298 nM | 25 nM | 
CO[C@@H](C)c1ncc(N2CCN(C)CC2)cc1-c1c2c3cc(ccc3n1CC(F)(F)F)-c1csc(n1)C[C@H](NC(=O)[C@H](C(C)C)N(C)C(=O)[C@H]1CCN(C(=O)[C@H](F)Cl)C1)C(=O)N1CCC[C@H](N1)C(=O)OCC(C)(C)C2 (atropisomer, axis not shown; (M)) [Example 21, (3S)-1-[(2R)-2-chloro-2-fluoro-acetyl]-N-[(1S)-1-[[(7S,13S)-(20M)-20-[2-[(1S)-1-methoxyethyl]-5-(4-methylpiperazin-1-yl)-3-pyridyl]-17,17-dimethyl-8,14-dioxo-21-(2,2,2-trifluoroethyl)-15-oxa-4-thia-9,21,27,28-tetrazapentacyclo[17.5.2.12,5.19,13.022,26]octacosa-1(25),2,5(28),19,22(26),23-hexaen-7-yl]carbamoyl]-2-methyl-propyl]-N-methyl-pyrrolidine-3-carboxamide] | 88% | stable (If % depletion after 6 hour incubation is less than 20%, compounds were reported as stable) |  | 1 nM | 14 nM | 5 nM | 0.3 nM | 44 nM | 8 nM | <2.4 mL/min/kg | low (CL_hep (mL/min/kg)<6.96 is low clearance) | 21 nM | > 10000 nM | > 10000 nM | 
CCn1c(-c2cc(N3CCN(C)CC3)cnc2[C@H](C)OC)c2c3cc(ccc31)-c1csc(n1)C[C@H](NC(=O)[C@H](C(C)C)N(C)C(=O)[C@H]1CCN(C(=O)[C@H](F)Cl)C1)C(=O)N1CCCC(N1)C(=O)OCC(C)(C)C2 (stereo partly drawn) [Example 10, (3S)-1-[(2R)-2-chloro-2-fluoro-acetyl]-N-[(1S)-1-[[(7S,13S)-21-ethyl-(20M)-20-[2-[(1S)-1-methoxyethyl]-5-(4-methylpiperazin-1-yl)-3-pyridyl]-17,17-dimethyl-8,14-dioxo-15-oxa-4-thia-9,21,27,28-tetrazapentacyclo[17.5.2.12,5.19,13.022,26]octacosa-1(25),2,5(28),19,22(26),23-hexaen-7-yl]carbamoyl]-2-methyl-propyl]-N-methyl-pyrrolidine-3-carboxamide] |  |  | 21 nM | 3 nM | 31 nM | 11 nM | 0.4 nM | 52 nM | 59 nM | <2.4 mL/min/kg | low (CL_hep (mL/min/kg)<6.96 is low clearance) |  |  |  | 85%

From US20250163072A1, “MACROCYCLIC COMPOUNDS FOR THE TREATMENT OF CANCER” (Hoffmann-La Roche Inc., priority 2021, published 2025)
